Reference: publication PMC2962730 (Journal of neurochemistry, 2010)
Changes are numbered by the printed parent chain.

Columns and labels:
[1] = target: T1, hVAChT W331A (Homo sapiens, UniProt Q16572, W331A); assay: [3H]vesamicol saturation binding; conditions: pH 7.4
T1 sequence (Q16572 1-532 W331A): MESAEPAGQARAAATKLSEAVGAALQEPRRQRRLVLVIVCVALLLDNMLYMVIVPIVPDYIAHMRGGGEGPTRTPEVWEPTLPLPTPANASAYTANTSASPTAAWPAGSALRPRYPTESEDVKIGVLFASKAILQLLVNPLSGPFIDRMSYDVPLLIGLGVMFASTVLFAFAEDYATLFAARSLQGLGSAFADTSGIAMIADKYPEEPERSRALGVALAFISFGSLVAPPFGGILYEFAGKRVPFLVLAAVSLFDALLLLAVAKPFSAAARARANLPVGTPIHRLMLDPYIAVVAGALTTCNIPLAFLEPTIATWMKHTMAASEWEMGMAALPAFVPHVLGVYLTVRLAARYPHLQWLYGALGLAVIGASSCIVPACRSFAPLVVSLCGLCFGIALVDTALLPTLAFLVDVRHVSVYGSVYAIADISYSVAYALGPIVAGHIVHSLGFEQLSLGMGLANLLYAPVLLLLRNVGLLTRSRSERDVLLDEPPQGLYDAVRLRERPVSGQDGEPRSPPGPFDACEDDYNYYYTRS

[2] = target: T2, hVAChT W315A (Homo sapiens, UniProt Q16572, W315A); assay: [3H]ACh transport; assay type: biochemical
T2 sequence (Q16572 1-532 W315A): T1 sequence (Q16572 1-532 W331A) with W315A, A331W

[3] = target: T3, hVAChT wild-type (Homo sapiens, UniProt Q16572); assay: ACh equilibrium binding by competition against [3H]vesamicol; conditions: WT hVAChT; pH 7.4
T3 sequence (Q16572 1-532): T1 sequence (Q16572 1-532 W331A) with A331W

[4] = target: T1, hVAChT W331A; assay: [3H]ACh transport; assay type: biochemical
[5] = target: T4, hVAChT M316A (Homo sapiens, UniProt Q16572, M316A); assay: [3H]ACh transport; assay type: biochemical
T4 sequence (Q16572 1-532 M316A): T1 sequence (Q16572 1-532 W331A) with M316A, A331W

[6] = target: T5, hVAChT W331L (Homo sapiens, UniProt Q16572, W331L); assay: [3H]ACh transport; assay type: biochemical
T5 sequence (Q16572 1-532 W331L): T1 sequence (Q16572 1-532 W331A) with A331L

[7] = read-out: KM, Michaelis-Menten constant for ACh transport, pH 7.4

Row | Vmax/Bmax, ACh transport normalized to Bmax ([2]; pH 7.4) [min⁻¹] | Km [2, 7] [µM] | FHA, fraction of the ACh sites that have high affinity [3] | [3H]ACh transport [4] | Vmax/Bmax, ACh transport normalized to Bmax ([5]; pH 7.4) [min⁻¹] | Km [5, 7] [µM] | Vmax/Bmax, ACh transport normalized to Bmax ([6]; pH 7.4) [min⁻¹] | Km [6, 7] [µM] | Structure (SMILES) | Bmax, maximal specific [3H]vesamicol binding (VAChT expression level) [1] [pmol/mg]
1 | – | – | – | – | – | – | – | – | O[C@@H]1CCCC[C@H]1N1CCC(c2ccccc2)CC1 (racemic) [vesamicol, ( )-trans-2-(4-phenylpiperidino)cyclohexanol] | 37 ± 2
2 | 5.2 ± 0.8 | 690 ± 220 | 0.82 ± 0.04 | no transport | 8.2 ± 1.0 | 1500 ± 300 | 6.2 ± 1.2 | 4600 ± 1500 | CC(=O)OCC[N+](C)(C)C [ACh, acetylcholine] | –
